Target: T1, androgen receptor (AR) (Homo sapiens, UniProt P10275)
T1 sequence (P10275 1-920): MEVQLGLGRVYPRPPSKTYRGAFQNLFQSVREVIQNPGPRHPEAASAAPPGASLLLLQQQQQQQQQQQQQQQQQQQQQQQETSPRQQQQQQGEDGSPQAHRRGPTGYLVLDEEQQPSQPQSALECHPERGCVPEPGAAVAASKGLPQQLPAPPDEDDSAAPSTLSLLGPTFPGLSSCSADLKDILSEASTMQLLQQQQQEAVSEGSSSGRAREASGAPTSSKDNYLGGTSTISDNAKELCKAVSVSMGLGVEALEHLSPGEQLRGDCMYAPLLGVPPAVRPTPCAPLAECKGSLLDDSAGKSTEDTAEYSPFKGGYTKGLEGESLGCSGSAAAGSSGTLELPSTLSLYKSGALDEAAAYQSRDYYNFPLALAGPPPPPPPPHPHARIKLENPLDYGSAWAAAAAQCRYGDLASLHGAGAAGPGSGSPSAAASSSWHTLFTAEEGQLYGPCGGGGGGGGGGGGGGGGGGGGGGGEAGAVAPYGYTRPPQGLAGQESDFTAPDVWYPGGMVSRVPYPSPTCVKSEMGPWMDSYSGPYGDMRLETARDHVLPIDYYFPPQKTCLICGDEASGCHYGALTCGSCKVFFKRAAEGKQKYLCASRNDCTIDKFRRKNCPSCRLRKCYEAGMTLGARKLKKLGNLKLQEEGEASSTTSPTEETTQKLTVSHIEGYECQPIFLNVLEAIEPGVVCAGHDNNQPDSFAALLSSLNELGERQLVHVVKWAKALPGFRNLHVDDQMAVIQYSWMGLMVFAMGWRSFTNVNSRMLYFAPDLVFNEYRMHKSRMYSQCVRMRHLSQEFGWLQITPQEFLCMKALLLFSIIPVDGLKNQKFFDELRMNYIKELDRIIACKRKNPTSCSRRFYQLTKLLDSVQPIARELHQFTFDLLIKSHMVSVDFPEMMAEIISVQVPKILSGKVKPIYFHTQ
Conditions: for Ligand Efficiency (LE): from VCaP GRE2-luciferase IC50; for Lipophilic Ligand Efficiency (LLE): from VCaP GRE2-luciferase IC50 and cLogP; for IC50: read-out: VCaP GRE2-luciferase IC50, 24 h, 0–30 µM compound; for IC50 / activity in VCaP GRE2-luciferase assay (in words): VCaP cells, 1 nM DHT
Description: VCaP cells, obtained from the American Type Culture Collection, were maintained in Dulbecco’s Modified Eagles Medium (DMEM) supplemented with 10% foetal bovine serum. Cells were maintained at 37°C without antibiotics in a humidified atmosphere
Transient transfection and Luciferase Activity Assay:
Cells at 70–80% confluence in 24 well plates, were transferred to DMEM
300ng/well of the firefly reporter plasmid, GRE2-TATA-luc using JetPEI (PolyPLUS Transfection) according to the manufacturers’ protocol.
replaced with fresh DMEM +5% CSS containing either DMSO (vehicle control) or 0– 30 µM small molecules together with 1nM DHT. Twenty four hours later, medium was aspirated, cells were washed with PBS and extracted with Passive Lysis Buffer
Cell debris was removed by centrifugation at 13,000 xg for 5min and supernatants collected. Luciferase activity was measured in triplicate, using an in-house luciferase assay buffer (13 mM MgSO4 7H2O, 30 mM
amount of total cellular protein.
Inhibition of hormone-dependent expression of prostate specific antigen (PSA):
VCaP prostate cells were treated with 1 nM DHT in the absence or presence of inhibitor. After 24 hours cells were harvested and PSA detected by Western blotting and normalised against β-actin.
Luciferase activity in cells treated with small molecules was determined as a percentage of the untreated control, which was set at 100%. Plots of activity against small molecule concentration (log) were analysed in GraphPad PRISM 5 and IC50 values for each small molecule determined.

Ligand Efficiency (LE)	Lipophilic Ligand Efficiency (LLE)	IC50 [nM]	activity in VCaP GRE2-luciferase assay (in words)	Compound	decrease in activity relative to indazole 12 (VCaP GRE2-luciferase IC50 ratio) [fold]
0.38	4.4	> 30000	–	Cn1ncc2cc(-c3cc(C(N)=O)ccc3OCc3ccccc3)ccc21 [Compound 47]	–
0.60	7.3	240	–	CSc1c(F)cc(C(N)=O)cc1-c1ccc2c(cnn2C)c1 [Compound 38]	–
0.60	–	260	–	CSc1ccc(C(=O)N2CCOCC2)cc1-c1cncnc1 [Compound 60]	–
0.59	6.6	700	–	CSc1ccc(C(N)=O)cc1-c1ccc2[nH]ncc2c1 [Compound 12]	–
0.44	4.9	2200	–	Cn1ncc2cc(-c3cc(C(N)=O)ccc3SCc3ccccc3)ccc21 [Compound 40]	–
0.52	4.6	> 30000	–	CSc1ccc(C(N)=O)cc1-c1ccc2ocnc2c1 [Compound 26]	–
–	5.8	> 30000	no activity	CSc1ccc(C(N)=O)cc1-c1ccc[nH]1 [Compound 11]	–
0.37	5.3	> 30000	–	Cn1ncc2cc(-c3cc(C(N)=O)ccc3NCCN3CCCCC3)ccc21 [Compound 55]	–
0.54	6.7	> 30000	–	Cn1ncc2cc(-c3cncc(C(N)=O)c3)ccc21 [Compound 36]	–
0.62	6.6	920	–	CSc1ccc(C(N)=O)cc1-c1ccc2[nH]cnc2c1 [Compound 15]	–
0.77	8.2	270	–	CSc1ccc(C(N)=O)cc1-c1cncnc1 [Compound 24]	–
0.52	5.4	> 30000	loss of activity	Cc1ccc(C(N)=O)cc1-c1ccc2c(cnn2C)c1 [Compound 41]	–
0.43	7.5	800	–	Cn1ncc2cc(-c3cc(C(N)=O)ccc3NCCCN3CCOCC3)ccc21 [Compound 56]	–
0.62	6.8	130	–	CSc1ccc(C(=O)N2CCCCC2)cc1-c1cncnc1 [Compound 59]	–
0.54	4.9	> 30000	inactive	CSc1ccc(C(N)=O)cc1-c1cc(O)cc(F)c1 [Compound 32]	–
0.72	7.3	120	–	CSc1ccc(C(N)=O)cc1-c1ccc(F)c(O)c1 [Compound 33]	–
0.52	4.4	> 30000	–	CSc1ccc(C(N)=O)cc1-c1ccc2c(c1)CCO2 [Compound 27]	–
0.54	4.9	> 30000	inactive	CSc1ccc(C(N)=O)cc1-c1cccc(O)c1F [Compound 31]	–
0.63	7.1	2200	–	CSc1ccc(C(N)=O)cc1-c1ccc2cn[nH]c2c1 [Compound 14]	–

Ligand Efficiency (LE)	Lipophilic Ligand Efficiency (LLE)	IC50 [nM]	activity in VCaP GRE2-luciferase assay (in words)	Compound	decrease in activity relative to indazole 12 (VCaP GRE2-luciferase IC50 ratio) [fold]
0.49	4.8	> 30000	Activity was abolished	COc1ccc(-c2cc(C(N)=O)ccc2SC)cc1OC [Compound 28]	–
0.52	5.4	> 30000	loss of activity	COc1cc(-c2cc(C(N)=O)ccc2SC)ccc1N [Compound 30]	–
0.80	8.2	120	–	CSc1ccc(C(=O)O)cc1-c1cncnc1 [Compound 58]	–
0.49	5.8	> 30000	–	COc1ccc(C(N)=O)cc1-c1ccc2c(cnn2C)c1 [Compound 46]	–
0.63	5.9	600	–	CSc1ccc(C(N)=O)cc1-c1ccc2occc2c1 [Compound 25]	–
0.54	5.7	> 30000	no bioactivity	Cn1ncc2cc(-c3cccc(C(N)=O)c3)ccc21 [Compound 43]	–
0.63	6.2	4700	–	CSc1ccc(C(N)=O)cc1-c1c(C)noc1C [Compound 10]	–
0.43	4.6	> 30000	–	Cn1ncc2cc(-c3cc(C(N)=O)ccc3OC(F)(F)F)ccc21 [Compound 48]	–
0.43	4.7	> 30000	inactive	CC(C)COc1ccc(C(N)=O)cc1-c1ccc2c(cnn2C)c1 [Compound 51]	–
0.46	6.2	940	–	Cn1ncc2cc(-c3cc(C(N)=O)ccc3NCc3ccccc3)ccc21 [Compound 52]	–
0.48	5.4	8600	–	Cn1ncc2cc(-c3cc(C(N)=O)ccc3C(F)(F)F)ccc21 [Compound 45]	–
0.52	5.6	> 30000	inactive	Cn1ncc2cc(-c3cc(C(N)=O)ccc3F)ccc21 [Compound 44]	–
0.63	6.2	760	–	COc1ccc(-c2cc(C(N)=O)ccc2SC)cc1F [Compound 29]	–
0.59	5.9	800	–	CSc1ccc(C(N)=O)cc1-c1ccc2ncccc2c1 [Compound 20]	–
0.43	5.1	> 30000	inactive	Cn1ncc2cc(-c3cc(C(N)=O)ccc3OCC3CC3)ccc21 [Compound 50]	–
0.79	6.3	600	–	CSc1ccc(C(N)=O)cc1-c1cccs1 [Compound 9]	–
0.61	5.6	> 30000	loss of activity	CSc1ccc(C(N)=O)cc1-c1ccncc1 [Compound 23]	–
0.41	6.4	> 30000	–	CN(C)CCNc1ccc(C(N)=O)cc1-c1ccc2c(cnn2C)c1 [Compound 57]	–
0.41	6.1	> 30000	–	Cn1ncc2cc(-c3cc(C(N)=O)ccc3N3CCOCC3)ccc21 [Compound 53]	–

Compound	Ligand Efficiency (LE)	Lipophilic Ligand Efficiency (LLE)	IC50 [nM]	activity in VCaP GRE2-luciferase assay (in words)	decrease in activity relative to indazole 12 (VCaP GRE2-luciferase IC50 ratio) [fold]
CSc1ccc(C(N)=O)cc1-c1ccc2[nH]ccc2c1 [Compound 13]	0.54	5.1	10300	–	10
